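Values below derive from 48-hour exposures of cells grown in 96-well plates, with endpoints linearly interpolated between the two concentrations bracketing the appropriate inhibition level. The concentration for 50% growth inhibition is given as GI50. TGI is the concentration that stops growth completely.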
Key:
Test in all cases: growth of human tumour cells (NCI), 48 h
[1] = test system: SK-OV-3 ovarian
[2] = test system: KM12 colon
[3] = test system: SK-MEL-28 melanoma
[4] = test system: SF-295 CNS
[5] = test system: OVCAR-5 ovarian
[6] = test system: M14 melanoma
[7] = test system: NCI-H460 lung
[8] = test system: MDA-MB-231 breast
[9] = test system: NCI-H226 lung
[10] = test system: HOP-92 NSCLC

| SMILES | GI50 [1] [µM] | TGI [1] [µM] | GI50 [2] [µM] | TGI [2] [µM] | GI50 [3] [µM] | TGI [3] [µM] | GI50 [4] [µM] | TGI [4] [µM] | GI50 [5] [µM] | TGI [5] [µM] | GI50 [6] [µM] | TGI [6] [µM] | GI50 [7] [µM] | TGI [7] [µM] | GI50 [8] [µM] | TGI [8] [µM] | GI50 [9] [µM] | TGI [9] [µM] | GI50 [10] [µM] | TGI [10] [µM] |
| --- | --- | --- | --- | --- | --- | --- | --- | --- | --- | --- | --- | --- | --- | --- | --- | --- | --- | --- | --- | --- |
| CCOC(=O)c1ccc(NC(=O)N2CC(C)OC(C)C2)cc1 (stereo not given) | > 100 | > 100 | > 100 | > 100 | > 100 | > 100 | > 100 | > 100 | > 100 | > 100 | > 100 | > 100 | > 100 | > 100 | > 100 | > 100 | > 100 | > 100 | > 100 | > 100 |
| CNC(=O)c1cc(OC2CCC(NC(=O)Nc3ccc(Cl)c(C(F)(F)F)c3)CC2)ccn1 (stereo not given) | 18.8 | 40.1 | 0.713 | 14 | 11.4 | 24.6 | 4.95 | 26.6 | 12.5 | 31.1 | 5.47 | 20.6 | 6.92 | 28.6 | 3.23 | 15.9 | 9.99 | 25.6 | 6.8 | 27.1 |
| COc1ccc(-c2nn3ncccc3c2-c2ccnc(Nc3ccc(Cl)c(C(F)(F)F)c3)n2)cc1 | 13.1 | > 25 | 9.89 | > 25 | 16.9 | > 25 | 9.96 | > 25 | 9.39 | > 25 | 11.5 | > 25 | 8.45 | > 25 | 8.56 | > 25 | 10.5 | > 25 | 4.54 | 19.8 |
| C=C1C(=O)O[C@H]2[C@H]1CC/C(COC(=O)c1cc3cc(F)ccc3[nH]1)=C\CC[C@@]1(C)O[C@@H]21 | 11.6 | 24.1 | 1.98 | 5.06 | 1.79 | 3.69 | 7.1 | 21.6 | 1.77 | 4.09 | 1.89 | 4.11 | 3.04 | 11.5 | 1.59 | 3.5 | 1.76 | 3.52 | 1.38 | 3.21 |
| ClCc1cccc(Cn2cnc3c(Cl)ncnc32)c1 | 3.31 | 10.6 | 3.47 | 13.4 | 2.23 | 5.69 | 3.25 | 8.68 | 2.08 | 4.32 | 1.66 | 3.31 | 11.7 | 36 | 1.99 | 4.04 | 2.15 | 4.38 | 2.46 | 6.22 |
| CC(=O)Nc1ccc2c(c1)c(C1=C(c3cn(C)c4ccccc34)C(=O)NC1=O)cn2C | 1.22 | > 25 | 1.16 | > 25 | 3.62 | > 25 | 1.18 | > 25 | > 25 | > 25 | 1.5 | > 25 | 0.986 | > 25 | 5 | > 25 | 3.1 | > 25 | 0.807 | 12 |
